From patent US20240316045A1, “CYCLOPROPYLAMIDE COMPOUNDS AGAINST PARASITES IN FISH” (Intervet Inc., priority 2021, published 2024)
Like-named read-outs stand apart in the source and are kept apart here.

Tests used:
[1] = tested on: Copepodids (juvenile sea lice stage of Lepeophtheirus salmonis); test: Juvenile sea lice contact assay; settings: read-out: Sea lice inhibition (% of dead+damaged copepodids)
Method: Copepodids (juvenile sea lice stage of Lepeophtheirus salmonis) were exposed to seawater spiked with declining concentrations of a test compound (dissolved in a DMSO sea-water mixture). Sea lice inhibition (% of dead+damaged copepodids) was assessed after approximately 24 hours of continuous exposure. The vitality of used parasites was confirmed in a negative (solvent) control group.

[2] = tested on: Mobile stages of sea lice (pre-adults, adults of Lepeophtheirus salmonis); test: Adult sea lice contact assay; settings: read-out: EC50 (sea lice inhibition, dead+damaged)
Method: Mobile stages of sea lice (i.e., pre-adults, adults of Lepeophtheirus salmonis) were exposed to seawater spiked with declining concentrations of a test compound (dissolved in a PEG sea-water mixture). Sea lice inhibition (% of dead+damaged sea lice) was assessed after approximately 1 and 24 hours of continuous exposure in comparison to a negative (solvent) control group.

Lepeophtheirus salmonis = test: Salmon in vivo efficacy trial against sea lice, gavage administration; settings: in Salmo salar
Method: Salmon (Salmo salar) were treated once orally by gavage at a dose of 5 mg/kg bodyweight per fish (Day 0). As formulation DMSO 5%/fish oil 95% was used. Salmon of the negative control group received only the excipients of the formulation.
The fish were infested with Lepeophtheirus salmonis copepodids twice before treatment (i.e., around day −28 and day −3) and once after treatment (i.e., day 17). […]
Efficacy is expressed as a % reduction of sea lice in treated groups versus a control group, using the Abbott's formula.

[3] = test concentration 10 nM, approx. 24 hours continuous exposure
[4] = pre-adult/adult L. salmonis, assessed after approx. 1 and 24 hours, time of EC50 not stated
[5] = 168 h, read-out: therapeutic efficacy against (pre-)adult sea lice (% reduction vs control, Abbott), single oral gavage 5 mg/kg, count at day 7, day -28 infestation
[6] = 672 h, read-out: therapeutic efficacy against juvenile sea lice (% reduction vs control, Abbott), single oral gavage 5 mg/kg, count around day 28, day -3 infestation
[7] = test concentration 100 nM, approx. 24 hours continuous exposure

Structure (SMILES) | inhibition at 0.01 µM [1, 3] [%] | EC50 [2, 4] [nM] | inhibition in vivo at 5 mg/kg (Lepeophtheirus salmonis; [5]) [%] | inhibition in vivo at 5 mg/kg (Lepeophtheirus salmonis; [6]) [%] | other results
O=C(Nc1ccc(F)cc1)c1cc(NC(=O)C2C(c3cc(Cl)cc(Cl)c3)C2(Cl)Cl)ccc1F (stereo not shown) [Compound 1003] |  |  |  |  | inhibition at 0.1 µM ([1]; 24 h): ≥ 80%; EC50 [2]: 1 to 25 nM
O=C(Nc1c(F)cccc1F)c1cc(NC(=O)C2C(c3cc(Cl)cc(Cl)c3)C2(Cl)Cl)ccc1Cl (stereo not shown) [Compound 1007] | 80 | 1 to 25 |  |  | 
O=C(Nc1ccncn1)c1cc(NC(=O)[C@H]2[C@H](c3cc(Cl)cc(Cl)c3)C2(Cl)Cl)ccc1Cl [Compound 1039] |  | 1 to 25 | 80 | 80 | inhibition at 0.1 µM [1, 7]: 100%
O=C(Nc1ccc(F)cc1F)c1cc(NC(=O)[C@H]2[C@H](c3ccc(F)c(Cl)c3)C2(Cl)Cl)ccc1Cl [Compound 1087] |  |  |  |  | inhibition at 0.001 µM ([1]; 24 h): 100%; EC50 [2]: 1 to 25 nM
O=C(Nc1ccc(F)cc1)c1cc(NC(=O)[C@H]2[C@H](c3cc(Cl)cc(Cl)c3)C2(Cl)Cl)ccc1F [Compound 1090] |  |  |  |  | inhibition at 0.001 µM ([1]; 24 h): 100%; EC50 [2]: 1 to 10 nM
O=C(Nc1ccc(F)cc1F)c1cc(NC(=O)[C@H]2[C@H](c3cc(F)c(F)c(F)c3)C2(Cl)Cl)ccc1Cl [Compound 1094] |  | 1 to 10 |  |  | 
O=C(Nc1ncc(F)cc1F)c1cc(NC(=O)[C@H]2[C@H](c3cc(Cl)cc(Cl)c3)C2(Cl)Cl)ccc1Cl [Compound 1097] |  | 1 to 10 |  |  | 
Cc1cc(NC(=O)c2cc(NC(=O)[C@H]3[C@H](c4cc(Cl)cc(Cl)c4)C3(Cl)Cl)ccc2Cl)ncc1F [Compound 1098] |  | 1 to 10 |  |  | 
O=C(Nc1ccccc1)c1cc(NC(=O)[C@H]2[C@H](c3cc(Cl)cc(Cl)c3)C2(Cl)Cl)ccc1Cl [Compound 1099] | 100 | 1 to 10 | 80 | 100 | 
Cc1ccccc1NC(=O)c1cc(NC(=O)[C@H]2[C@H](c3cc(Cl)cc(Cl)c3)C2(Cl)Cl)ccc1Cl [Compound 1100] | 100 | 1 to 10 | 100 | 100 | 
Cc1ccc(NC(=O)[C@H]2[C@H](c3cc(Cl)cc(Cl)c3)C2(Cl)Cl)cc1C(=O)Nc1ccc(F)cc1 [Compound 1101] |  | 1 to 10 |  |  | inhibition at 0.1 µM [1, 7]: 100%
O=C(Nc1cnc(F)cc1F)c1cc(NC(=O)[C@H]2[C@H](c3cc(Cl)cc(Cl)c3)C2(Cl)Cl)ccc1Cl [Compound 1366] |  | 1 to 10 |  |  | 
O=C(Nc1c(F)ccnc1F)c1cc(NC(=O)[C@H]2[C@H](c3cc(Cl)cc(Cl)c3)C2(Cl)Cl)ccc1Cl [Compound 1367] |  | 1 to 10 |  |  | 
Cc1c(F)cc(NC(=O)[C@H]2[C@H](c3cc(Cl)cc(Cl)c3)C2(Cl)Cl)cc1C(=O)Nc1ncc(F)cc1F [Compound 1368] | 100 | 1 to 10 | 80 | 100 | 
O=C(Nc1c(F)cccc1F)c1cc(NC(=O)[C@H]2[C@H](c3cc(Cl)cc(Cl)c3)C2(Cl)Cl)ccc1Cl [Compound 1370] | 100 | 1 to 10 | 100 | 100 | 
O=C(Nc1cncnc1)c1cc(NC(=O)[C@H]2[C@H](c3cc(Cl)cc(Cl)c3)C2(Cl)Cl)ccc1Cl [Compound 1371] | 100 | 1 to 10 | 100 | 100 | 
O=C(Nc1ncc(F)cn1)c1cc(NC(=O)[C@H]2[C@H](c3cc(Cl)cc(Cl)c3)C2(Cl)Cl)ccc1Cl [Compound 1372] |  | 1 to 10 |  |  | 
O=C(Nc1ncc(F)cc1F)c1cc(NC(=O)[C@H]2[C@H](c3cc(Cl)cc(Cl)c3)C2(Cl)Cl)ccc1F [Compound 1376] |  | ≤ 1 | 100 | 100 | inhibition at 10 pM ([1]; test concentration 0.01 nM, approx. 24 hours continuous exposure): 100%; inhibition at 0.0001 µM ([1]; test concentration 0.1 nM, approx. 24 hours continuous exposure): 100%
O=C(Nc1ncc(F)cc1F)c1cc(NC(=O)[C@H]2[C@H](c3cc(Cl)cc(Cl)c3)C2(Cl)Cl)cc(F)c1Cl [Compound 1378] | 100 | 1 to 25 | 100 | 100 | 
O=C(Nc1ncc(F)cc1F)c1cccc(NC(=O)[C@H]2[C@H](c3cc(Cl)cc(Cl)c3)C2(Cl)Cl)c1F [Compound 1379] |  | 1 to 25 |  |  | inhibition at 0.1 µM [1, 7]: 100%
O=C(Nc1cnc(F)cc1F)c1cc(NC(=O)[C@H]2[C@H](c3cc(Cl)c(Cl)c(Cl)c3)C2(Cl)Cl)ccc1Cl [Compound 1380] |  | 1 to 10 |  |  | 
O=C(Nc1ncc(F)cc1F)c1cc(NC(=O)C2C(c3cc(Cl)c(F)c(Cl)c3)C2(Cl)Cl)ccc1Cl (stereo not shown) [Compound 1383] | 100 | 1 to 10 |  |  | 
O=C(Nc1ncc(F)cc1F)c1cc(NC(=O)C2C(c3cc(C(F)(F)F)cc(C(F)(F)F)c3)C2(Cl)Cl)ccc1Cl (stereo not shown) [Compound 1385] | 100 | 1 to 10 |  |  | 
O=C(Nc1ccc(F)cc1F)c1cc(NC(=O)C2C(c3cc(C(F)(F)F)cc(C(F)(F)F)c3)C2(Cl)Cl)ccc1F (stereo not shown) [Compound 1387] |  | 1 to 10 |  |  | inhibition at 0.1 µM [1, 7]: 100%
O=C(Nc1ncc(F)cc1F)c1cc(NC(=O)C2C(c3cc(C(F)(F)F)cc(C(F)(F)F)c3)C2(Cl)Cl)cc(F)c1F (stereo not shown) [Compound 1388] |  | 1 to 10 |  |  | inhibition at 0.1 µM [1, 7]: 100%
O=C(Nc1ncc(F)cc1F)c1cc(NC(=O)C2C(c3cc(Cl)cc(C(F)(F)F)c3)C2(Cl)Cl)ccc1Cl (stereo not shown) [Compound 1389] | 100 | ≤ 1 |  |  | 
O=C(Nc1ncc(F)cc1F)c1cc(NC(=O)C2C(c3cc(Cl)cc(Cl)c3)C2(Cl)Cl)cc(F)c1F (stereo not shown) [Compound 1391] | 80 | 1 to 10 |  |  | 
O=C(Nc1ncc(F)cc1F)c1cc(NC(=O)[C@H]2[C@H](c3cc(F)c(F)c(F)c3)C2(Cl)Cl)ccc1Cl [Compound 1392] |  |  |  |  | inhibition in vivo at 5 mg/kg (Lepeophtheirus salmonis; po, 168 h, read-out: therapeutic efficacy against (pre-)adult sea lice (% reduction vs control, Abbott)): 100%; inhibition in vivo at 5 mg/kg (Lepeophtheirus salmonis; po, 672 h, read-out: therapeutic efficacy against juvenile sea lice (% reduction vs control, Abbott)): 80%; inhibition at 0.01 µM ([1]; 24 h): 100%; EC50 [2]: ≤ 1 nM
O=C(Nc1ncc(F)cc1F)c1cc(NC(=O)[C@H]2[C@H](c3cc(F)c(F)c(F)c3)C2(Cl)Cl)ccc1F [Compound 1393] | 100 | ≤ 1 | 100 | 80 | 
O=C(Nc1ncc(F)cc1F)c1c(F)ccc(NC(=O)[C@H]2[C@H](c3cc(Cl)cc(Cl)c3)C2(Cl)Cl)c1F [Compound 1394] |  | 1 to 10 | 100 | 100 | inhibition at 0.1 µM [1, 7]: 100%
